Legend:
[1] = molecular target: ligand binding domain (LBD) of recombinant human FXR (Homo sapiens (Human), UniProt Q96RI1); test: FXR cell free coactivator (SRC-1) recruitment assay, TR-FRET; conditions: FXR LBD (amino acids 244-476) with labeled SRC-1 domain, 25° C. for 60 minutes, activity relative to CDCA maximum; read-out: EC50 FXR- Biochemical TR-FRET/μM
Experimental: A cell free coactivator recruitment assay was developed for FXR, to measure the functional potency of novel FXR compounds. In this assay, novel FXR compounds were bound to the ligand binding domain (LBD) of recombinant human FXR. The ability of this liganded homodimeric complex to recruit the co-activator protein steroid receptor coactivator 1 (SRC-1) was measured using Time-Resolved Fluorescence Resonance Energy Transfer (TR-FRET).
The LBD of human FXR (amino acids 244-476) was cloned into an expression vector for protein expression in SF9 insect cells. Purified FXR LBD was incubated in TR-FRET coregulator buffer G (Eurofins) with test compounds (0-10 micromolar) and a labeled nuclear receptor interaction domain of SRC-1 at 25° C. for 60 minutes (final DMSO vehicle concentration was 1.2%). Assays were analyzed using an Envision TR-FRET reader (PerkinElmer Life and Analytical Sciences). Compound activity at each concentration was defined as a percentage of the maximal activity of the natural FXR ligand agonist chenodeoxycholic acid (CDCA) generating a dose response curve.

[2] = molecular target: full length human FXR protein (Homo sapiens (Human), UniProt Q96RI1); test: FXR cellular assay (FXR-SRCP β-gal enzyme fragment complementation in CHO-K1 cells, chemiluminescence); type: cell-based; conditions: CHO-K1 cells with SRCP-EA and ProLink-labeled FXR, 0-10 micromolar compound, 37° C. for 6h, read-out: EC50 FXR-cell Luminescence/
Source text: A cell based FXR assay was used to detect protein-protein interactions between an activated (ligand-bound), full length human FXR protein and a nuclear fusion protein containing a Steroid Receptor Coactivator Peptide (SCRP) domain. In this approach, two weakly complementing fragments of the 3-gal enzyme were expressed within stably transfected Chinese Hamster Ovary (CHO-K1) cells. The complementing fragments of the 3-gal enzyme (ProLink, PK; and Enzyme Acceptor, EA) were translationally fused to the C-terminus of a full-length FXR and to the SRCP, respectively. Complementation was driven by the protein-protein interaction between SRCP-EA and a ProLink-labeled FXR. Upon FXR-SRCP binding, the two fragments of 3-gal complement, forming a functional enzyme capable of hydrolyzing a substrate molecule and generating a chemiluminescent signal.
CHO-K1 cells containing SRCP-EA and ProLink-labeled FXR were plated in 384-well microplates and incubated at 37° C. overnight. A positive control FXR agonist, GW4064 (0-10 micromolar), or test compounds (0-10 micromolar) were added to plated cells and incubated at 37° C. for 6h (final DMSO vehicle concentration was 1%). The assay signal was generated by addition of 50% (v/v) detection reagent (19:5:1, cell assay buffer: substrate reagent 1: substrate reagent 2, DiscoverX) followed by incubation for 1h at ambient room temperature. Microplates were analyzed using an Envision reader (PerkinElmer Life and Analytical Sciences, Signal=chemiluminescence).

full length human FXR protein, sequence (Q96RI1 whole entry, the tested form may be a part): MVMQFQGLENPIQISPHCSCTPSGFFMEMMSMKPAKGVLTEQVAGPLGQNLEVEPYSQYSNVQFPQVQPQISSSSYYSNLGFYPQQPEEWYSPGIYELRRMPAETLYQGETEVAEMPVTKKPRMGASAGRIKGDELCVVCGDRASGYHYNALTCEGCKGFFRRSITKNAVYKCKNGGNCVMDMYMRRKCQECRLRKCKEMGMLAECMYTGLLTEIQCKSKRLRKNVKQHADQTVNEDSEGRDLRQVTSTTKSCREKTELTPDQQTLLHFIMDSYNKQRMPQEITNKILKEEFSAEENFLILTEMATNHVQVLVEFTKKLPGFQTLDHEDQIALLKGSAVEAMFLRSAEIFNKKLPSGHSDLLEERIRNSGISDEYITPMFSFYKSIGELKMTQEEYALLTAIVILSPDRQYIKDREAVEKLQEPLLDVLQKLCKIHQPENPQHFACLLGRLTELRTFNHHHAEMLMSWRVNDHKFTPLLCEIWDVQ
ligand binding domain (LBD) of recombinant human FXR, sequence (Q96RI1 254-486): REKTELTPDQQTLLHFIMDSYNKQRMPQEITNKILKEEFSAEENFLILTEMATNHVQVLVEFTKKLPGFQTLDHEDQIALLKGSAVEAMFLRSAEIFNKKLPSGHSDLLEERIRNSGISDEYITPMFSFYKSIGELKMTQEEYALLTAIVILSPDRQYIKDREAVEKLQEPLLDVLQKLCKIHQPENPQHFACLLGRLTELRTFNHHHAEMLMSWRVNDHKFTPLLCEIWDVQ
ligand binding domain (LBD) of recombinant human FXR, sequence (Q15788 whole entry partner, the tested form may be a part): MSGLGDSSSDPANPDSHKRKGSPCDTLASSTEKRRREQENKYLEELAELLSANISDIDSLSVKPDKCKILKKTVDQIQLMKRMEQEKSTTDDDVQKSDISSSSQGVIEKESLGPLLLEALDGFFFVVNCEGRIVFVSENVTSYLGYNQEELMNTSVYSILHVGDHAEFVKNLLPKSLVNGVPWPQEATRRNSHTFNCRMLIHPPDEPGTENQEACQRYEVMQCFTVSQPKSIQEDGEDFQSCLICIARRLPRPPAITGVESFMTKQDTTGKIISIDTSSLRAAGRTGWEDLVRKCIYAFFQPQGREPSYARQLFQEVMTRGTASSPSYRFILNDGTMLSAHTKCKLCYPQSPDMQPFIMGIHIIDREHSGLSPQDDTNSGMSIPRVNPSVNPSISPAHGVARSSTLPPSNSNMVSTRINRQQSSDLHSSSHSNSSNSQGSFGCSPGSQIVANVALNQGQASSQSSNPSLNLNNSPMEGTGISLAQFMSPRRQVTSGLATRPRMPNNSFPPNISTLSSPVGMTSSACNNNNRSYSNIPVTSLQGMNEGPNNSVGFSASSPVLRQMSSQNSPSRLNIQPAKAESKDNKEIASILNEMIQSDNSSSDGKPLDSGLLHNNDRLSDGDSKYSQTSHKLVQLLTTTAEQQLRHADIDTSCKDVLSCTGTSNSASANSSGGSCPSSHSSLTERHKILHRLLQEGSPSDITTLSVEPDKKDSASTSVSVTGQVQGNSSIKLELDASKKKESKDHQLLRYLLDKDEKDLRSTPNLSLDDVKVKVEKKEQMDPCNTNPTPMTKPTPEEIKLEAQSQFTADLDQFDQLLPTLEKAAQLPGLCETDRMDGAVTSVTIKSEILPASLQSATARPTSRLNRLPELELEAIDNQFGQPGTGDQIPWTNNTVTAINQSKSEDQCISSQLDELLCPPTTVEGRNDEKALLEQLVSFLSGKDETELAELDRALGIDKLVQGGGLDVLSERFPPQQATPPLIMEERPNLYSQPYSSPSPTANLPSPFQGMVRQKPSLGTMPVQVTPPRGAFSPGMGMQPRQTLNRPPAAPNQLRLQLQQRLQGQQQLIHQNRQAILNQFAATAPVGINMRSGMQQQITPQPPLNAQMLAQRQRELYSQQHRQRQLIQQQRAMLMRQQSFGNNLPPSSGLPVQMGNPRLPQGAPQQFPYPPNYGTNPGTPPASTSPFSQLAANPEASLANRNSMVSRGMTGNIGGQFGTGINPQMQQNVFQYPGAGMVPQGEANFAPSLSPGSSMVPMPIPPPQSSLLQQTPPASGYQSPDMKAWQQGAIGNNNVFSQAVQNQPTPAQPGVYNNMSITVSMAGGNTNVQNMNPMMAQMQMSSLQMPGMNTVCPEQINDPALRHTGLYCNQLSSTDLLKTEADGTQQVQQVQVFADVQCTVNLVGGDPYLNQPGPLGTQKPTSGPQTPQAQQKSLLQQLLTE

Row | SMILES | EC50 [1] [µM] | EC50 [2] [nM]
1 | Cc1cc(N2CCC(OCc3c(-c4c(Cl)cccc4Cl)noc3C3CC3)CC2)ccc1-c1noc(=O)[nH]1 [Example 11, 3-(4-(4-((5-cyclopropyl-3-(2,6-dichlorophenyl)isoxazol-4-yl)methoxy)piperidin-1-yl)-2-methylphenyl)-1,2,4-oxadiazol-5(4H)-one] | 0.0219 | 280
2 | O=c1[nH]c(-c2ccc(N3CCC(OCc4c(-c5c(Cl)cccc5Cl)noc4C4CC4)CC3)nc2)no1 [Example 6, 3-(6-(4-((5-cyclopropyl-3-(2,6-dichlorophenyl)isoxazol-4-yl)methoxy)piperidin-1-yl)pyridin-3-yl)-1,2,4-oxadiazol-5(4H)-one] | 0.0044 | 372
3 | O=c1[nH]c(-c2ccc(N3CCC(OCc4c(-c5c(Cl)cccc5Cl)noc4C4CC4)CC3)cn2)no1 [Example 9, 3-(5-(4-((5-cyclopropyl-3-(2,6-dichlorophenyl)isoxazol-4-yl)methoxy)piperidin-1-yl)pyridin-2-yl)-1,2,4-oxadiazol-5(4H)-one] | 0.175 | 1590
4 | O=c1[nH]c(-c2ccc(N3CCC(OCc4c(-c5c(Cl)cccc5Cl)noc4C4CC4)CC3)cc2F)no1 [Example 13, 3-(4-(4-((5-cyclopropyl-3-(2,6-dichlorophenyl)isoxazol-4-yl)methoxy)piperidin-1-yl)-2-fluorophenyl)-1,2,4-oxadiazol-5(4H)-one] | 0.0035 | 82.3
5 | O=c1[nH]c(-c2ccc(N3CC(OCc4c(-c5c(Cl)cccc5Cl)noc4C4CC4)C3)cc2)no1 [Example 19, 3-(4-(3-((5-cyclopropyl-3-(2,6-dichlorophenyl)isoxazol-4-yl)methoxy)azetidin-1-yl)phenyl)-1,2,4-oxadiazol-5(4H)-one] | 0.122 | 840
6 | O=c1cn[nH]c(=O)n1-c1ccc(N2CCC(OCc3c(-c4c(Cl)cccc4Cl)noc3C3CC3)CC2)nc1 [Example 4, 4-(6-(4-((5-cyclopropyl-3-(2,6-dichlorophenyl)isoxazol-4-yl)methoxy)piperidin-1-yl)pyridin-3-yl)-1,2,4-triazine-3,5(2H,4H)-dione] | 0.22 | 1470
7 | O=c1[nH]c(-c2ccc(N3[C@@H]4CC[C@H]3C[C@@H](OCc3c(-c5ccccc5OC(F)(F)F)noc3C3CC3)C4)nc2)no1 [Example 66, 3-(6-((1R,3r,5S)-3-((5-cyclopropyl-3-(2-(trifluoromethoxy)phenyl)isoxazol-4-yl)methoxy)-8-azabicyclo[3.2.1]octan-8-yl)pyridin-3-yl)-1,2,4-oxadiazol-5(4H)-one] | 0.003 | 247
8 | O=c1[nH]c(-c2ncc(N3CCC(OCc4c(-c5c(Cl)cccc5Cl)noc4C4CC4)CC3)cn2)no1 [Example 8, 3-(5-(4-((5-cyclopropyl-3-(2,6-dichlorophenyl)isoxazol-4-yl)methoxy)piperidin-1-yl)pyrimidin-2-yl)-1,2,4-oxadiazol-5(4H)-one] | 0.0281 | 2110
9 | O=c1[nH]c(-c2coc(N3CCC(OCc4c(-c5c(Cl)cccc5Cl)noc4C4CC4)CC3)n2)no1 [Example 29, 3-(2-(4-((5-cyclopropyl-3-(2,6-dichlorophenyl)isoxazol-4-yl)methoxy)piperidin-1-yl)oxazol-4-yl)-1,2,4-oxadiazol-5(4H)-one] | 0.231 | 3190
10 | O=c1[nH]c(-c2ccc(N3[C@@H]4CC[C@H]3C[C@@H](OCc3c(-c5ccccc5OC(F)(F)F)noc3C3CC3)C4)cc2)no1 [Example 50, 3-(4-((1R,3r,5S)-3-((5-cyclopropyl-3-(2-(trifluoromethoxy)phenyl)isoxazol-4-yl)methoxy)-8-azabicyclo[3.2.1]octan-8-yl)phenyl)-1,2,4-oxadiazol-5(4H)-one] | 0.0032 | 53.8
11 | O=c1cc(-c2ccc(N3CCC(OCc4c(-c5c(Cl)cccc5Cl)noc4C4CC4)CC3)nc2)o[nH]1 [Example 59, 5-(6-(4-((5-cyclopropyl-3-(2,6-dichlorophenyl)isoxazol-4-yl)methoxy)piperidin-1-yl)pyridin-3-yl)isoxazol-3(2H)-one] | 0.0179 | 264
12 | CCOc1cccc(F)c1-c1noc(C2CC2)c1COC1CCN(c2ccc(-c3noc(=O)[nH]3)cc2)CC1 [Example 27, 3-(4-(4-((5-cyclopropyl-3-(2-ethoxy-6-fluorophenyl)isoxazol-4-yl)methoxy)piperidin-1-yl)phenyl)-1,2,4-oxadiazol-5(4H)-one] | 0.227 | 960
13 | O=c1[nH]c(-c2cc(N3CCC(OCc4c(-c5c(Cl)cccc5Cl)noc4C4CC4)CC3)no2)no1 [Example 42, 3-(3-(4-((5-cyclopropyl-3-(2,6-dichlorophenyl)isoxazol-4-yl)methoxy)piperidin-1-yl)isoxazol-5-yl)-1,2,4-oxadiazol-5(4H)-one] | 0.139 | 10000
14 | O=c1[nH]c(-c2cnc(N3CCC(OCc4c(-c5c(Cl)cccc5Cl)noc4C4CC4)CC3)nc2)no1 [Example 5, 3-(2-(4-((5-cyclopropyl-3-(2,6-dichlorophenyl)isoxazol-4-yl)methoxy)piperidin-1-yl)pyrimidin-5-yl)-1,2,4-oxadiazol-5(4H)-one] | 0.031 | 2530
15 | C[C@H]1C[C@H](OCc2c(-c3c(Cl)cccc3Cl)noc2C2CC2)CCN1c1ccc(-c2noc(=O)[nH]2)cc1 [Example 20, 3-(4-((2S,4R)-4-((5-cyclopropyl-3-(2,6-dichlorophenyl)isoxazol-4-yl)methoxy)-2-methylpiperidin-1-yl)phenyl)-1,2,4-oxadiazol-5(4H)-one] | 0.114 | 398
16 | O=c1[nH]nc(-c2ccc(N3CCC(OCc4c(-c5c(Cl)cccc5Cl)noc4C4CC4)CC3)cn2)c(=O)[nH]1 [Example 46, 6-(5-(4-((5-cyclopropyl-3-(2,6-dichlorophenyl)isoxazol-4-yl)methoxy)piperidin-1-yl)pyridin-2-yl)-1,2,4-triazine-3,5(2H,4H)-dione] | 0.0746 | 10000
17 | O=c1[nH]c(-c2ccc(N3CCC(OCc4c(-c5ccccc5OC(F)(F)F)noc4C4CC4)CC3)cc2)no1 [Example 36, 3-(4-(4-((5-cyclopropyl-3-(2-(trifluoromethoxy)phenyl)isoxazol-4-yl)methoxy)piperidin-1-yl)phenyl)-1,2,4-oxadiazol-5(4H)-one] | 0.0188 | 113
18 | C[C@@H]1C[C@H](OCc2c(-c3c(Cl)cccc3Cl)noc2C2CC2)CCN1c1ccc(-c2noc(=O)[nH]2)cc1 [Example 23, 3-(4-((2R,4R)-4-((5-cyclopropyl-3-(2,6-dichlorophenyl)isoxazol-4-yl)methoxy)-2-methylpiperidin-1-yl)phenyl)-1,2,4-oxadiazol-5(4H)-one] | 0.0031 | 27.7
19 | O=c1[nH]c(-c2ncc(N3CCC(OCc4c(-c5c(Cl)cccc5Cl)noc4C4CC4)CC3)s2)no1 [Example 56, 3-(5-(4-((5-cyclopropyl-3-(2,6-dichlorophenyl)isoxazol-4-yl)methoxy)piperidin-1-yl)thiazol-2-yl)-1,2,4-oxadiazol-5(4H)-one] | 0.0431 | 887
20 | O=c1[nH]c(-c2cccc(N3CCC(OCc4c(-c5c(Cl)cccc5Cl)noc4C4CC4)CC3)c2)no1 [Example 7, 3-(3-(4-((5-cyclopropyl-3-(2,6-dichlorophenyl)isoxazol-4-yl)methoxy)piperidin-1-yl)phenyl)-1,2,4-oxadiazol-5(4H)-one] | 0.105 | 1230
21 | O=c1[nH]c(-c2ccc(N3CCCC(OCc4c(-c5ccccc5OC(F)(F)F)noc4C4CC4)CC3)cc2)no1 (centres unmarked) [Example 47, 3-(4-(4-((5-cyclopropyl-3-(2-(trifluoromethoxy)phenyl)isoxazol-4-yl)methoxy)azepan-1-yl)phenyl)-1,2,4-oxadiazol-5(4H)-one] | 0.0037 | 76.7
22 | C[C@@H]1C[C@@H](OCc2c(-c3c(Cl)cccc3Cl)noc2C2CC2)CCN1c1ccc(-c2noc(=O)[nH]2)cc1 [Example 21, 3-(4-((2R,4S)-4-((5-cyclopropyl-3-(2,6-dichlorophenyl)isoxazol-4-yl)methoxy)-2-methylpiperidin-1-yl)phenyl)-1,2,4-oxadiazol-5(4H)-one] | 0.0793 | 343

— patent publication US20240116912A1, “COMPOUNDS AND METHODS FOR MODULATING FXR” (Terns Pharmaceuticals, Inc., priority 2020, published 2024)
